Data: ChEMBL document CHEMBL5120772, “Discovery of ASP5878: Synthesis and structure-activity relationships of pyrimidine derivatives as pan-FGFRs inhibitors with improved metabolic stability and suppressed hERG channel inhibitory activity” (Bioorg Med Chem, 2022)

What was measured:
[1] = Intrinsic clearance in human liver microsomes
[2] = target: Voltage-gated inwardly rectifying potassium channel KCNH2 (Homo sapiens, UniProt Q12809); experiment: Inhibition of hERG channel expressed in CHO cells at -80 mV holding potential by Qpatch clamp method
NIH3T3 = experiment: Cytotoxicity against mouse NIH/3T3 cells overexpressing FGFR3 S249C assessed as cell growth inhibition incubated for 5 days by CellTitre-Glo assay; details: NIH3T3, 120 h
[3] = Plasma concentration in ICR mouse at 30 mg/kg, po measured after 6 hrs of administration by LC-MS/MS analysis; assay type: ADME, organism-based
[4] = Permeability of the compound in aqueous buffer at pH 6.5 incubated for 2 hrs by PAMPA based HPLC analysis
[5] = Lipophilicity, logD of the compound in 1-octanol and phosphate buffer at pH 7.4 by LC-MS analysis
animal or person = details: Mus musculus, Balb/c, NIH3T3, po, 6 h, read-out: INH
[6] = Ratio of drug concentration in brain to plasma (Kp,brain) in Sprague-Dawley rat at 1 mg/kg, po measured after 1 hr
[7] = Ratio of drug concentration in brain to plasma (Kp,brain) in Sprague-Dawley rat at 1 mg/kg, po measured after 24 hrs
[8] = Ratio of drug concentration in brain to plasma (Kp,brain) in Sprague-Dawley rat at 1 mg/kg, po measured after 4 hrs
[9] = target: Fibroblast growth factor receptor 3 (Homo sapiens, UniProt P22607); experiment: Inhibition of wild type N-terminal GST tagged FGFR3 (436 to 806 residues) (unknown origin) expressed in sf21 insect cells preincubated for 30 mins followed by substrate addition and measured after 30 mins in presence of ATP by off-chip mobility shift assay
[10] = AUCinfinity in Sprague-Dawley rat at 0.3 mg/kg, iv measured up to 24 hrs by LC-MS/MS analysis; details: in vivo
[11] = Volume of distribution at steady state in Beagle dog at 0.1 mg/kg, iv measured up to 72 hrs by LC-MS/MS analysis; details: in vivo
in vivo [12] = details: beagle, dog, po, 100 mg/kg
in vivo [13] = details: beagle, dog, po, 0.1 mg/kg
in vivo [14] = details: beagle, dog, po, 1 mg/kg
[15] = Volume of distribution at steady state in Sprague-Dawley rat at 0.3 mg/kg, iv measured up to 24 hrs by LC-MS/MS analysis; details: in vivo
in vivo [16] = details: beagle, dog, iv, 0.1 mg/kg
[17] = dog, in vivo, po, 10 mg/kg, 72 h
in vivo [18] = details: Sprague-Dawley, rat, po, 0.3 mg/kg
[19] = AUCinfinity in Beagle dog at 0.1 mg/kg, iv measured up to 72 hrs by LC-MS/MS analysis; details: in vivo
in vivo [20] = details: beagle, dog, po, 1 mg/kg; remark: listed apart in the source
hERG [21] = target: T1, hERG (Homo sapiens, UniProt Q12809); experiment: Inhibition of hERG in HEK293 cells assessed as mean compensated suppression rate at 10 uM incubated for 13 mins by whole cell patch clamp assay relative to control; details: HEK293 cells expressing hERG
hERG [22] = target: T1, hERG; experiment: Inhibition of hERG in HEK293 cells assessed as mean compensated suppression rate at 1 uM incubated for 13 mins by whole cell patch clamp assay relative to control; details: HEK293 cells expressing hERG
in vivo [23] = details: Sprague-Dawley, rat, po, 0.3 mg/kg; remark: listed apart in the source
[24] = AUCinfinity in Beagle dog at 0.1 mg/kg, po measured upto 72 hrs by LC-MS/MS analysis; details: in vivo
[25] = dog, in vivo, po, 100 mg/kg, 72 h
[26] = dog, in vivo, po, 10 mg/kg, 72 h; remark: listed apart in the source
in vivo [27] = details: beagle, dog, po, 1 mg/kg; remark: listed apart in the source
[28] = AUCinfinity in Sprague-Dawley rat at 0.3 mg/kg, po measured upto 24 hrs by LC-MS/MS analysis; details: in vivo
in vivo [29] = details: Sprague-Dawley, rat, po, 0.3 mg/kg; remark: listed apart in the source
in vivo [30] = details: Sprague-Dawley, rat, iv, 0.3 mg/kg
in vivo [31] = details: beagle, dog, po, 10 mg/kg
in vivo [32] = details: beagle, dog, po, 100 mg/kg; remark: listed apart in the source
[33] = Half-life in Beagle dog at 0.1 mg/kg, iv measured up to 72 hrs by LC-MS/MS analysis; details: in vivo
in vivo [34] = details: beagle, dog, po, 0.1 mg/kg; remark: listed apart in the source
in vivo [35] = details: beagle, dog, po, 0.1 mg/kg; remark: listed apart in the source
hERG [36] = target: T1, hERG; experiment: Inhibition of hERG in HEK293 cells assessed as mean compensated suppression rate at 3 uM incubated for 13 mins by whole cell patch clamp assay relative to control; details: HEK293 cells expressing hERG
[37] = Half-life in Sprague-Dawley rat at 0.3 mg/kg, iv measured up to 24 hrs by LC-MS/MS analysis; details: in vivo

T1 sequence (Q12809 whole entry): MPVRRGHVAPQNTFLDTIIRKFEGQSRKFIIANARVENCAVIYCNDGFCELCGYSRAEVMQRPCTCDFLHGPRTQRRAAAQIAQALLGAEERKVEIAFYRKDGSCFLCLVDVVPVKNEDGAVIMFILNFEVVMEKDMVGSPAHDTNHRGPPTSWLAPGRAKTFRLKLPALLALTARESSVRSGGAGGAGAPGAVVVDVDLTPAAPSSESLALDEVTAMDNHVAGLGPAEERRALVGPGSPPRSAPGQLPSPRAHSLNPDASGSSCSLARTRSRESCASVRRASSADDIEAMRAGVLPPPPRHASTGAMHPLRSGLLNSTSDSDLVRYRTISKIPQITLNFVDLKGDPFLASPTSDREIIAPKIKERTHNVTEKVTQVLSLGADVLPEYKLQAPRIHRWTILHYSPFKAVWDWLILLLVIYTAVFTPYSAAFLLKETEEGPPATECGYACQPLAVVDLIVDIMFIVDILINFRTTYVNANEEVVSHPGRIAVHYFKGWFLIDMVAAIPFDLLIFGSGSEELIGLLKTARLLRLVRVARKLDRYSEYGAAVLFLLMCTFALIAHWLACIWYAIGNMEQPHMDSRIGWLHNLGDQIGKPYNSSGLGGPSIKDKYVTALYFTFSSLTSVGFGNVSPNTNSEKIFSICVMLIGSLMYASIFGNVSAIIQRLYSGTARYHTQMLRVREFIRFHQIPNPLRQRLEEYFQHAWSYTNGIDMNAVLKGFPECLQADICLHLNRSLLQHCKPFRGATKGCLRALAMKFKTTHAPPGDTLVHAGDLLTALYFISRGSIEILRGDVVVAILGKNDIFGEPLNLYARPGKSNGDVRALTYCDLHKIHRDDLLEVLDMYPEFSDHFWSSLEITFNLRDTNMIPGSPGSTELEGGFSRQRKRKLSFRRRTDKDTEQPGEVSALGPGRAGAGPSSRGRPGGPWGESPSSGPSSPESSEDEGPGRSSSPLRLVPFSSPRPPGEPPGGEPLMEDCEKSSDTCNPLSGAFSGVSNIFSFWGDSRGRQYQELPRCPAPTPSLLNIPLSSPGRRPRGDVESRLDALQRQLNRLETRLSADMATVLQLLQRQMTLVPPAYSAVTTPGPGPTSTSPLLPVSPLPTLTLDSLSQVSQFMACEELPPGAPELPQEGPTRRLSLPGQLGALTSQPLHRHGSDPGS
Sequence of Voltage-gated inwardly rectifying potassium channel KCNH2 (Q12809 whole entry): as above
Sequence of Fibroblast growth factor receptor 3 (P22607 whole entry, the tested form may be a part): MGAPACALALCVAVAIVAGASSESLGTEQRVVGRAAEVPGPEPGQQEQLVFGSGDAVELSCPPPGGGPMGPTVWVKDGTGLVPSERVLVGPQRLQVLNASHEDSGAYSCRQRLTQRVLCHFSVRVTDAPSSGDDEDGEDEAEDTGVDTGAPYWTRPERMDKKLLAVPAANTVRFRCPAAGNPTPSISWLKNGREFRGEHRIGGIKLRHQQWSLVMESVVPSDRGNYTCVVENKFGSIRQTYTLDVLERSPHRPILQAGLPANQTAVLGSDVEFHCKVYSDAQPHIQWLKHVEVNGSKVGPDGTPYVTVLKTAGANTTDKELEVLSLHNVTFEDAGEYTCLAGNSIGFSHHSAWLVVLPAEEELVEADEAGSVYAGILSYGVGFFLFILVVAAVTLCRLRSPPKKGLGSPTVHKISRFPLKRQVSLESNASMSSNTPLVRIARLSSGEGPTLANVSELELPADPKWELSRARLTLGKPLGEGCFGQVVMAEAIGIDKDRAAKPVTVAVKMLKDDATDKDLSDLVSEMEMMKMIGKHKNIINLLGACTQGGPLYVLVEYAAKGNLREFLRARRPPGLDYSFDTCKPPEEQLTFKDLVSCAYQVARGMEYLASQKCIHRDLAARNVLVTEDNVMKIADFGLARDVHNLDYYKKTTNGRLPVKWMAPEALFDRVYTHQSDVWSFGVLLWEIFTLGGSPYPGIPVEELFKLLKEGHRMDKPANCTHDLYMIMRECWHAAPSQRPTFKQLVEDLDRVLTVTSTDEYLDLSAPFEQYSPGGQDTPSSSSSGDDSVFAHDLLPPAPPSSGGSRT

For `COc1cc(Nc2ncc(CCc3c(F)c(OC)cc(OC)c3F)cn2)ccc1N1CCC(N2CCN(C)CC2)CC1`, the CLint scaled ([1]; liver microsomes) was 171 mL/min/kg and the IC50 [2] was 10000 nM.
Compound `COc1cc(Nc2ncc(OCc3c(F)c(OC)cc(OC)c3F)cn2)ccc1N1CCC(N2CCN(C)CC2)CC1` has a CLint scaled ([1]; liver microsomes) of 40 mL/min/kg, an IC50 (NIH3T3) of 13 nM and a concentration at 6 h [3] of 2790 nM. The Papp at 2 h [4] was 11.2 ×10⁻⁶ cm/s, the logD ([5]; 1-octanol/phosphate buffer) was 3.3 and the inhibition in vivo at 30 mg/kg (animal or person) was 67%. The IC50 [2] was > 3000 nM.
Compound `COc1cc(Nc2ncc(OCc3c(F)c(OC)cc(OC)c3F)cn2)ccc1N1CCN(C)CC1` has a CLint scaled ([1]; liver microsomes) of 39 mL/min/kg, a Papp at 2 h [4] of 16.2 ×10⁻⁶ cm/s and a logD ([5]; 1-octanol/phosphate buffer) of 3. For the same compound, the IC50 [2] was > 3000 nM.
With `CCOc1cc(Nc2ncc(OCc3c(F)c(OC)cc(OC)c3F)cn2)ccc1N1CCC(N2CCN(C)CC2)CC1` the CLint scaled ([1]; liver microsomes) was < 23 mL/min/kg, the Papp at 2 h [4] was 16.8 ×10⁻⁶ cm/s and the logD ([5]; 1-octanol/phosphate buffer) was 3.8. The IC50 [2] was > 3000 nM.
With `COc1cc(Nc2ncc(CCc3c(F)c(OC)cc(OC)c3F)cn2)ccc1N1CCC(N(C)C2CCN(C)CC2)CC1.Cl.Cl.Cl.Cl` the CLint scaled ([1]; liver microsomes) was 48 mL/min/kg, the IC50 (NIH3T3) was 24 nM and the Papp at 2 h [4] was < 0.9 ×10⁻⁶ cm/s. For the same compound, the logD ([5]; 1-octanol/phosphate buffer) was 2.5 and the IC50 [2] was > 1000 nM.
`COc1cc(OC)c(F)c(COc2cnc(Nc3cnc(N4CCC(N5CCN(C)CC5)CC4)nc3)nc2)c1F` gave a CLint scaled ([1]; liver microsomes) of 39 mL/min/kg.
Compound `COc1cc(OC)c(F)c(COc2cnc(Nc3ccc(N4CCC(N5CCN(C)CC5)CC4)nc3)nc2)c1F` has a CLint scaled ([1]; liver microsomes) of 34 mL/min/kg.
In the case of `COc1cc(OC)c(F)c(COc2cnc(Nc3cnn(CCO)c3)n[14cH]2)c1F`, the Kp at 1 h [6] is reported as 0.15, the Kp at 24 h [7] is reported as 0.69 and the Kp at 4 h [8] is reported as 0.2.
With `COc1cc(Nc2ncc(CCc3c(F)c(OC)cc(OC)c3F)cn2)ccc1N1CCN(C)CC1` the CLint scaled ([1]; liver microsomes) was 101 mL/min/kg, the IC50 (NIH3T3) was 18 nM and the Papp at 2 h [4] was > 30 ×10⁻⁶ cm/s. It also gave a logD ([5]; 1-octanol/phosphate buffer) of 3.
In the case of `COc1cc(Nc2ncc(CCc3c(F)c(OC)cc(OC)c3F)cn2)ccc1N1CCN(C2CCN(C)CC2)CC1`, the CLint scaled ([1]; liver microsomes) is reported as 51 mL/min/kg.
For `COc1cc(Nc2ncc(OCc3c(F)c(OC)cc(OC)c3F)cn2)cnc1N1CCC(N2CCN(C)CC2)CC1`, the CLint scaled ([1]; liver microsomes) was 26 mL/min/kg.
In the case of `COc1cc(OC)c(F)c(COc2cnc(Nc3cnn(CCNC4CCN(C)CC4)c3)nc2)c1F.Cl.Cl.Cl`, the CLint scaled ([1]; liver microsomes) is reported as < 23 mL/min/kg, the IC50 (NIH3T3) is reported as 32 nM and the concentration at 6 h [3] is reported as 50.2 nM. The Papp at 2 h [4] was < 1.4 ×10⁻⁶ cm/s, the logD ([5]; 1-octanol/phosphate buffer) was 0.7 and the IC50 [2] was 83000 nM.
For `COc1cc(OC)c(F)c(COc2cnc(Nc3cnn(CCN4CCNCC4)c3)nc2)c1F.Cl.Cl.Cl`, the CLint scaled ([1]; liver microsomes) was < 23 mL/min/kg, the IC50 (NIH3T3) was 13 nM and the concentration at 6 h [3] was 305 nM. The Papp at 2 h [4] was < 1.1 ×10⁻⁶ cm/s, the logD ([5]; 1-octanol/phosphate buffer) was 0.2 and the IC50 [2] was 89000 nM.
In the case of `COc1cc(OC)c(F)c(COc2cnc(Nc3ccc(N4CCC(N5CCN(C)CC5)CC4)c(F)c3)nc2)c1F`, the CLint scaled ([1]; liver microsomes) is reported as 42 mL/min/kg, the IC50 (NIH3T3) is reported as 5.5 nM and the IC50 [9] is reported as < 1 nM.
`COc1cc(OC)c(F)c(COc2cnc(Nc3ccc(N4CCC(N5CCN(C)CC5)CC4)c(C)c3)nc2)c1F` gave a CLint scaled ([1]; liver microsomes) of 58 mL/min/kg, an IC50 (NIH3T3) of 20 nM and a Papp at 2 h [4] of 20.6 ×10⁻⁶ cm/s. The logD ([5]; 1-octanol/phosphate buffer) was 4.1.
In the case of `COc1cc(OC)c(F)c(COc2cnc(Nc3cnn(CCO)c3)nc2)c1F` [ASP-5878], the AUC(0-inf) at 24 h [10] is reported as 864 ng·h/mL, the Vd at 72 h [11] is reported as 0.665 L/kg and the AUC(0-t) at 72 h (in vivo [12]) is reported as 111000 ng·h/mL. The CLint scaled ([1]; microsomes) was < 23 mL/min/kg, the Tmax at 72 h (in vivo [13]) was 1 h and the Cmax at 72 h (in vivo [14]) was 769 ng/mL. For the same compound, the Vd at 24 h [15] was 0.671 L/kg, the clearance at 72 h (in vivo [16]) was 1.33 mL/min/kg and the Cmax [17] was 3540 ng/mL. It also gave an IC50 (NIH3T3) of 11 nM, a bioavailability at 24 h (in vivo [18]) of 76.1% and a concentration at 6 h [3] of 1570 nM. The AUC(0-inf) at 72 h [19] was 1260 ng·h/mL, the Tmax at 72 h (in vivo [20]) was 1.3 h and the inhibition at 13 min, 10 µM (hERG [21]) was 9.1%. It also gave an inhibition at 13 min, 1 µM (hERG [22]) of 7%, a Cmax at 24 h (in vivo [23]) of 196 ng/mL and an AUC(0-inf) at 72 h [24] of 1180 ng·h/mL. It also gave a Cmax [25] of 9020 ng/mL, a Papp at 2 h [4] of 13.3 ×10⁻⁶ cm/s and a logD ([5]; octanol/water) of 2.3. The AUC [26] was 39600 ng·h/mL, the AUC(0-t) at 72 h (in vivo [27]) was 5710 ng·h/mL and the AUC(0-inf) at 24 h [28] was 657 ng·h/mL. The Tmax at 24 h (in vivo [29]) was 1 h, the clearance at 24 h (in vivo [30]) was 5.82 mL/min/kg and the Tmax at 72 h (in vivo [31]) was 3 h. For the same compound, the Tmax at 72 h (in vivo [32]) was 4.5 h, the half-life at 72 h [33] was 9.6 h and the IC50 [2] was > 10000 nM. For the same compound, the bioavailability at 72 h (in vivo [34]) was 94.2%, the Cmax at 72 h (in vivo [35]) was 119 ng/mL and the inhibition at 13 min, 3 µM (hERG [36]) was 9.1%. It also gave a half-life at 24 h [37] of 1.7 h.
